Measured values published in patent US10167299B2, “1-(3-aminopropyl) substituted cyclic amine compounds, preparation method therefor, and pharmaceutical compositions and uses thereof” (SHANGHAI INSTITUTE OF MATERIA MEDICA, CHINESE ACADEMY OF …, priority 2013, dated 2019).
≈ marks a conversion by molar mass, not a printed value. Read-outs that look alike come from different tables or passages of the source.

What was measured:
[1] = system: Salmonella typhimurium strain TA98; assay: Bacterial reverse mutation assay TA98 (-S9); type: cell-based; conditions: TA98, -S9, positive control 20 μg/dish
Method: (§1) The mutagenic effects of compounds 18 and 22 of the present invention on Salmonella typhimurium strains TA98 and TA100 in non-metabolic activation (-S9) condition were determined. Two strains, TA98 and TA100 were chosen in bacterial reverse mutation assay for compounds 18 and 22. 9 doses containing […], negative and positive controls were set in experiments. 3 dishes were used for each dose. The experiment was carried out under -S9 condition.

[2] = system: HIV-1SF162 virus strain; assay: Inhibition activity on TZM-bl cells infected with HIV-1SF162; conditions: for EC50: Human immunodeficiency virus 1, TZM-bl; for therapeutic index (TI): TZM-bl cells infected with HIV-1SF162
[3] = system: CCR5 protein; assay: Thermal stability of protein test (CPM-assay); type: binding; conditions: for Tm (° C.): thermal stability of CCR5 protein with compound, CPM dye
From the text: Experimental theory: many cysteines are present in CCR5 protein sequence. Cysteines located in loop region form disulfide bonds to stabilize the tertiary structure of the protein. Some free cysteines in reduced state are located in the transmembrane region. Under excitation by incident light of 387 nm, the combination of free sulfhydryl and fluorescent dye CPM can emit excitation light of 436 nm. […] The free sulfhydryls originally located in the transmembrane region expose and combine with the fluorescent dye. And then the detector will detect changes in signal enhancement. Therefore, the thermal stability of membrane proteins can be determined according to the temperature (Tm) at the midpoint of changes in signal intensity.
Experimental steps: Upon preliminary purification, the obtained protein solution was transferred into a small concentration tube (100 kd, 500 ul) for concentration (1000 rcf, 12 min, 4° C.). After centrifugation, the concentration tube was taken out and flicked to prevent protein coagulation due to high local concentration. The final concentrated volume was about 50 μl. 117 μl of purified solution (volume is suitable to make the total volume up to 120 μl), 1 μl fluorescent dye cpm (in-house prepared) and 2 μl of concentrated protein solution (the amount of added protein is 3-5 μg according to the calculated concentration of the protein solution and the concentrated volume) were added to 2 ml Ependorf tube and incubated at room temperature for 20 min. And then the mixture was added to the cuvette (Qwan) and put in the testing equipment Cary, wherein the surface of the frosted glass faced out. The temperature was set in the range of 4-90° C. with 1° C. increase per minute and the program was run. Tm value can be obtained by processing the data and graph with a mapping software and can be used to compare the difference of protein thermal stability under different conditions.

[4] = Cytotoxicity (CC50) in TZM-bl cells; type: cell-based; conditions: human
[5] = target: CCR5 (Homo sapiens (Human), UniProt P51681); assay: Calcium flux inhibition experiment; type: cell-based; conditions: for IC50: HEK293/CCR5-Gα16 cell line, calcium flux, read-out: CCR5 IC50; for calcium influx inhibition effect in words, versus positive control compounds: conclusion from Table 1
CCR5, sequence (P51681 whole entry): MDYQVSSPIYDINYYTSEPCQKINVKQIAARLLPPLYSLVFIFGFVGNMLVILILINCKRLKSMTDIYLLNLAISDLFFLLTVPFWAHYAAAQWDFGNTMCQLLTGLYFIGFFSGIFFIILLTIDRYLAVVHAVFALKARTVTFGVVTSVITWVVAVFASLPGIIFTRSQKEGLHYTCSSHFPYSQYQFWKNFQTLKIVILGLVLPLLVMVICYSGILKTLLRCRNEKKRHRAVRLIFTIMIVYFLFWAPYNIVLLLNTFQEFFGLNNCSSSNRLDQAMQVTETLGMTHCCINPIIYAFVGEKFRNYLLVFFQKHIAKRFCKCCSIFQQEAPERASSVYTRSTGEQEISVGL

[6] = target: hERG (Homo sapiens (Human), UniProt Q12809)
hERG, sequence (Q12809 whole entry): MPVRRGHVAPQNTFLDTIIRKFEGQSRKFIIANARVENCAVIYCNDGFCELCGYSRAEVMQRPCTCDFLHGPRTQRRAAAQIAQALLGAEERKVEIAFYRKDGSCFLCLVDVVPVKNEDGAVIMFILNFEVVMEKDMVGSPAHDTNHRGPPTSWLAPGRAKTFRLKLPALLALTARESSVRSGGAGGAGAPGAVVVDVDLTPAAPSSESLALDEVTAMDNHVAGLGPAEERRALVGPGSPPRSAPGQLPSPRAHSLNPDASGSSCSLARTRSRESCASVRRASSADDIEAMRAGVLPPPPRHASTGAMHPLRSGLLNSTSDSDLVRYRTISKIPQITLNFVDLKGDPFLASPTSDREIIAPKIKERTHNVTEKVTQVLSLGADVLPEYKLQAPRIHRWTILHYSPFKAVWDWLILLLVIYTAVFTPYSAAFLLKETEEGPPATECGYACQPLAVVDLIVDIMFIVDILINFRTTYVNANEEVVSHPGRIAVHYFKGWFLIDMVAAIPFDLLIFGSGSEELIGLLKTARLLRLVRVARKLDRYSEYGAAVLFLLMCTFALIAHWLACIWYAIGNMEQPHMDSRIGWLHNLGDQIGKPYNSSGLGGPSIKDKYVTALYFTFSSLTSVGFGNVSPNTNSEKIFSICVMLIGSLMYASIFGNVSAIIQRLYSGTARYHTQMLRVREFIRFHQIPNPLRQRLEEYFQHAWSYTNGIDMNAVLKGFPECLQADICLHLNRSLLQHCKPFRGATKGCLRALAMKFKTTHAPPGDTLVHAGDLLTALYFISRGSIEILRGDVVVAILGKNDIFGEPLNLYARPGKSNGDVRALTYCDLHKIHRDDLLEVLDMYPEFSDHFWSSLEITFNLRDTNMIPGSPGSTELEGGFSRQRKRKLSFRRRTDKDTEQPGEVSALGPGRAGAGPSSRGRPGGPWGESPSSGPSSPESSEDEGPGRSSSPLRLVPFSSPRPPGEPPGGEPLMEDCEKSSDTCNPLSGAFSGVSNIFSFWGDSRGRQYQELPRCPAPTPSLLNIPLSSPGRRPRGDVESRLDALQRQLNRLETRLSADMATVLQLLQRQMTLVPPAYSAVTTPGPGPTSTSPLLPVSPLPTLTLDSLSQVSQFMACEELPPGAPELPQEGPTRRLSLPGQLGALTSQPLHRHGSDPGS
Method: CHO-hERG cells which have been incubated overnight were added with sample buffer and incubated for 90 minutes at room temperature in darkness.
The sample buffer was removed and assay buffer was added.
The compound is added to the cell plate and incubated for 20 minutes in darkness.
Cell plate was placed into FDSS. The fluorescence signal was recorded every second for 10 seconds. Exciting buffer was added to the cells at the 10th second and the fluorescence signal was recorded every second for 180 seconds

[7] = system: Salmonella typhimurium strain TA100; assay: Bacterial reverse mutation assay TA100 (-S9); type: cell-based; conditions: TA100, -S9, positive control 1300 μg/dish
Method: as §1

[8] = TZM-bl cells (Table 3), read-out: CC50

| EC50 [2] [µg/mL] | IC50 [5] [nM] | SMILES | therapeutic index (TI) [2] | Tm (° C.) [3] [°C] | CC50 [4, 8] [µg/mL] | also measured |
| --- | --- | --- | --- | --- | --- | --- |
| – | – | O=[N+]([O-])c1ccc2c(c1)Cc1ccccc1-2 [2-Nitroflucrene, reference compound] | – | – | – | number of revertant colonies (Mean ± SD) [1]: 999 ± 145.2 |
| 0.29 (≈ 0.587 µM) | 36.6 | Cc1nnc(C(C)C)n1C1CCN(CCC(NC(=O)C2CCC(F)(F)CC2)c2cccs2)CC1 (stereo not shown) [Compound 1, 4,4-difluoro-N-[3-[4-(3-isopropyl-5-methyl-4H-1,2,4-triazol-4-yl)-piperidin-1-yl]-1-(thiophen-2-yl)propyl]cyclohexane-1-carboxamide] | >340.14 | 60.59 | > 100 | – |
| 0.326 (≈ 0.837 µM) | 32.6 | CC(=O)NC(CCN1CCC(n2c(C)nnc2C(C)C)CC1)c1cccs1 (stereo not shown) [Compound 2, N-[3-[4-(3-isopropyl-5-methyl-4H-1,2,4-triazol-4-yl)-piperidin-1-yl]-1-(thiophen-2-yl)propyl]acetamide] | >306.75 | 65.23 | > 100 | – |
| – | 29.7 | Cc1nnc(C(C)C)n1C1CCN(CC[C@H](NC(=O)C2CCC(F)(F)CC2)c2cccnc2)CC1 [Compound 5, 4,4-difluoro-N-[(1S)-3-[4-(3-isopropyl-5-methyl-4H-1,2,4-triazol-4-yl)-piperidin-1-yl]-1-(pyridin-3-yl)propyl]cyclohexane-1-carboxamide] | – | 57.31 | – | – |
| 1.81 (≈ 4.13 µM) | 79.3 | Cc1nnc(C(C)C)n1C1CCN(CC[C@H](NC(=O)C2CCCC2)c2cccnc2)CC1 [Compound 9, N-[(1S)-3-[4-(3-isopropyl-5-methyl-4H-1,2,4-triazol-4-yl)-piperidin-1-yl]-1-(pyridin-3-yl)propyl]cyclopentane-1-carboxamide] | 55.42 | 61.32 | > 100 | – |
| – | – | CC(=O)N[C@@H](CCN1C2CCC1CC(n1c(C)nnc1C(C)C)C2)c1cccs1 (stereo partly drawn) [Compound 12, N-[(1S)-3-[exo-3-(3-isopropyl-5-methyl-4H-1,2,4-triazol-4-yl)-8-azabicyclo[3.2.1]octane-8-yl]-1-(thiophen-2-yl)propyl]acetamide] | – | – | – | hERG inhibition activity in words, versus positive control compounds [6]: better that those of positive control compounds |
| 0.183 (≈ 0.371 µM) | 3.4 | Cc1nnc(C(C)C)n1C1CCN(CC[C@H](NC(=O)C2CCC(F)(F)CC2)c2cccs2)CC1 [Compound 13, 4,4-difluoro-N-[(1S)-3-[4-(3-isopropyl-5-methyl-4H-1,2,4-triazol-4-yl)-piperidin-1-yl]-1-(thiophen-2-yl)propyl]cyclohexane-1-carboxamide] | >1093.14 | 65.32 | > 100 | calcium influx inhibition effect in words, versus positive control compounds [5]: better than the positive control compounds |
| 0.316 (≈ 0.69 µM) | 9.22 | Cc1nnc(C(C)C)n1C1CCN(CC[C@H](NC(=O)C2CCCCC2)c2cccs2)CC1 [Compound 15, N-[(1S)-3-[4-(3-isopropyl-5-methyl-4H-1,2,4-triazol-4-yl)-piperidin-1-yl]-1-(thiophen-2-yl)propyl]cyclohexane-1-carboxamide] | >632.87 | 64.30 | > 200 | calcium influx inhibition effect in words, versus positive control compounds [5]: comparable to the positive control compounds |
| 0.15 (≈ 0.304 µM) | 11.9 | Cc1nnc(C(C)C)n1C1CCN(CC[C@H](NC(=O)C2CCC(F)(F)CC2)c2ccsc2)CC1 [Compound 21, 4,4-difluoro-N-[(1S)-3-[4-(3-isopropyl-5-methyl-4H-1,2,4-triazol-4-yl)-piperidin-1-yl]-1-(thiophen-3-yl)propyl]cyclohexane-1-carboxamide] | >1333.96 | 64.68 | > 200 | calcium influx inhibition effect in words, versus positive control compounds [5]: comparable to the positive control compounds |
| 0.168 (≈ 0.379 µM) | 37.9 | Cc1nnc(C(C)C)n1C1CCN(CC[C@H](NC(=O)C2CCCC2)c2ccsc2)CC1 [Compound 25, N-[(1S)-3-[4-(3-isopropyl-5-methyl-4H-1,2,4-triazol-4-yl)-piperidin-1-yl]-1-(thiophen-3-yl)propyl]cyclopentane-1-carboxamide] | >1190.41 | 62.31 | > 200 | – |
| – | – | Cc1sc([C@H](CCN2C3CCC2CC(n2c(C)nnc2C(C)C)C3)NC(=O)C2CCC(F)(F)CC2)c(C)c1C (stereo partly drawn) [Compound 103, 4,4-difluoro-N-[(1S)-3-[exo-3-(3-isopropyl-5-methyl-4H-1,2,4-triazol-4-yl)-8-azabicyclo[3.2.1]octane-8-yl]-1-(3,4,5-trimethylthiophen-2-yl)propyl]cyclohexane-1-carboxamide] | – | – | – | IC50 [6]: 3470 nM |
| – | – | COS(C)(=O)=O [Methyl methanesulfonate, reference compound] | – | – | – | number of revertant colonies (Mean ± SD) [7]: 1231 ± 146.1 |

| SMILES | EC50 [2] [µg/mL] | IC50 [5] [nM] | therapeutic index (TI) [2] | Tm (° C.) [3] [°C] | CC50 [4, 8] [µg/mL] | also measured |
| --- | --- | --- | --- | --- | --- | --- |
| CC(=O)NC(CCN1C2CCC1CC(n1c(C)nnc1C(C)C)C2)c1cccs1 (stereo not drawn) [Compound 4, N-[3-[exo-3-(3-isopropyl-5-methyl-4H-1,2,4-triazol-4-yl)-8-azabicyclo[3.2.1]octane-8-yl]-1-(thiophen-2-yl)propyl]acetamide] | 1.46 (≈ 3.51 µM) | 15 | 29.29 | 65.64 | 42.8 (≈ 103 µM) | – |
| Cc1nnc(C(C)C)n1C1CCN(CC[C@H](NC(=O)C2CCCCC2)c2cccnc2)CC1 [Compound 7, N-[(1S)-3-[4-(3-isopropyl-5-methyl-4H-1,2,4-triazol-4-yl)-piperidin-1-yl]-1-(pyridin-3-yl)propyl]cyclohexane-1-carboxamide] | 2.34 (≈ 5.17 µM) | 35.2 | 50.31 | 57.21 | > 100 | – |
| Cc1nnc(C(C)C)n1C1CC2CCC(C1)N2CC[C@H](NC(=O)C1CCCC1)c1cccnc1 (stereo partly drawn) [Compound 10, N-[(1S)-3-[exo-3-(3-isopropyl-5-methyl-4H-1,2,4-triazol-4-yl)-8-azabicyclo[3.2.1]octane-8-yl]-1-(pyridin-3-yl)propyl]cyclopentane-1-carboxamide] | 1.42 (≈ 3.06 µM) | 36.6 | >70.42 | 63.21 | – | CC50 [4]: > 100 µg/mL |
| CCC1CCC(C(=O)N[C@@H](CCN2C3CCC2CC(n2c(C)nnc2C(C)C)C3)c2cccs2)CC1 (stereo partly shown) [Compound 19] | 0.00959 (≈ 0.0187 µM) | 21.5 | 8940.56 | 69.20 | – | CC50 [4]: 85.7 µg/mL (≈ 168 µM) |
| Cc1nnc(C(C)C)n1C1CCN(CC[C@H](NC(=O)C2CCCCC2)c2ccsc2)CC1 [Compound 23, N-[(1S)-3-[4-(3-isopropyl-5-methyl-4H-1,2,4-triazol-4-yl)-piperidin-1-yl]-1-(thiophen-3-yl)propyl]cyclohexane-1-carboxamide] | 0.06 (≈ 0.131 µM) | 27.3 | >3332.78 | 63.90 | > 200 | – |
| Cc1nnc(C(C)C)n1C1CC2CCC(C1)N2CC[C@H](NC(=O)C1CCCCC1)c1ccsc1 (stereo partly shown) [Compound 24] | – | 44.6 | – | 62.31 | – | – |
| Cc1nnc(C(C)C)n1C1CC2CCC(C1)N2CC[C@H](NC(=O)C1CCCC1)c1ccsc1 (stereo partly drawn) [Compound 26, N-[(1S)-3-[exo-3(3-isopropyl-5-methyl-4H-1,2,4-triazol-4-yl)-8-azabicyclo[3.2.1]octane-8-yl]-1-(thiophen-3-yl)propyl]cyclopentane-1-carboxamide] | 0.00558 (≈ 0.0119 µM) | 5.06 | >35842.29 | 71.02 | – | cytotoxicity in vitro and therapeutic index in words, versus positive control compound ([2]; TZM-bl cells infected with HIV-1SF162, conclusion from Table 3): better than positive control compound; protein stability effect in words, versus positive control compound ([3]; conclusion from Table 2): comparable with the positive control compound; CC50 [4]: > 200 µg/mL; calcium influx inhibition effect in words, versus positive control compounds [5]: better than the positive control compounds |
